Measurements from PubChem BioAssay AID248 (DTP/NCI, 2004).
Several values for one entry are separate records, joined by “and”; a condition that tells them apart may be missing. Identical values can stand only once. Inconclusive results and toxic doses are left out.

Tested on: L1210 leukemia ip in BDF1 mice, survival T/C
Assay: NCI In Vivo Anticancer Drug Screen. Data for tumor model L1210 Leukemia (intraperitoneal) in B6D2F1 (BDF1) mice
Conditions: endpoint: mean survival time, higher = longer survival
How it was run: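 In this screen, tumor-bearing mice given compound are compared to those given vehicle, and their survival values are reported as a treated-to-control quotient.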

[1] = dose: 75.0 mg/kg/injection, schedule: Q01DX001 (ip), vehicle: saline
[2] = dose: 150.0 mg/kg/injection, schedule: Q01DX001 (ip), vehicle: saline
[3] = dose: 50.0 mg/kg/injection, schedule: Q04DX003 (ip), vehicle: Klucel (hydroxypropylcellulose) (HPC)
[4] = dose: 100.0 mg/kg/injection, schedule: Q04DX003 (ip), vehicle: Klucel (hydroxypropylcellulose) (HPC)
[5] = dose: 200.0 mg/kg/injection, schedule: Q04DX003 (ip), vehicle: Klucel (hydroxypropylcellulose) (HPC)
[6] = dose: 400.0 mg/kg/injection, schedule: Q04DX003 (ip), vehicle: Klucel (hydroxypropylcellulose) (HPC)
[7] = dose: 100.0 mg/kg/injection, schedule: Q01DX001 (ip), vehicle: saline
[8] = dose: 200.0 mg/kg/injection, schedule: Q01DX001 (ip), vehicle: saline
[9] = dose: 400.0 mg/kg/injection, schedule: Q01DX001 (ip), vehicle: saline
[10] = dose: 100.0 mg/kg/injection, schedule: Q04DX003 (ip), vehicle: saline with Tween-80
[11] = dose: 200.0 mg/kg/injection, schedule: Q04DX003 (ip), vehicle: saline with Tween-80
[12] = dose: 400.0 mg/kg/injection, schedule: Q04DX003 (ip), vehicle: saline with Tween-80
[13] = dose: 100.0 mg/kg/injection, schedule: Q01DX001 (ip), vehicle: carboxymethylcellulose (CMC)
[14] = dose: 200.0 mg/kg/injection, schedule: Q01DX001 (ip), vehicle: carboxymethylcellulose (CMC)
[15] = dose: 100.0 mg/kg/injection, schedule: Q01DX009 (ip), vehicle: Klucel (hydroxypropylcellulose) (HPC)
[16] = dose: 200.0 mg/kg/injection, schedule: Q01DX009 (ip), vehicle: Klucel (hydroxypropylcellulose) (HPC)

In the case of `NC(=S)N/N=C\C(=N/NC(N)=S)C(O)CO` (stereo not given), the T/C [1] is reported as 97 % of control and the T/C [2] is reported as 101 % of control.
`Cc1c(C)c2c(C#N)c3ccccc3nc2c2ccccc12` was tested, and the T/C [3] was 102 % of control, the T/C [4] was 102 % of control and the T/C [5] was 107 % of control. For the same molecule, the T/C [6] was 103 % of control.
`CC(=O)OCC1OC(N2CCc3ccccc32)C(OC(C)=O)C(OC(C)=O)C1OC(C)=O` (stereo not given) was tested, and the T/C [7] was 103 % of control, the T/C [8] was 102 % of control and the T/C [9] was 96 % of control.
For `COC1=CC2C3=C(C(NC=O)CCc4cc(O)c(OC)c(OC)c43)C2C1=O` (stereo not given), the T/C [10] was 101 % of control, the T/C [11] was 93 % of control and the T/C [12] was 108 % of control.
`O=NN(CCCl)C(=O)NC1Cc2ccccc2C1` was tested, and the T/C (dose: 8.0 mg/kg/injection, schedule: Q01DX001 (ip), vehicle: other) was 109 % of control, the T/C (dose: 62.0 mg/kg/injection, schedule: Q01DX001 (ip), vehicle: other) was 239 % of control and the T/C (dose: 125.0 mg/kg/injection, schedule: Q01DX001 (ip), vehicle: other) was 264 % of control. The T/C (dose: 250.0 mg/kg/injection, schedule: Q01DX001 (ip), vehicle: other) was 112 % of control and the T/C (dose: 500.0 mg/kg/injection, schedule: Q01DX001 (ip), vehicle: other) was 86 % of control.
`CCOC(=O)NC(C)(C)CN(C(=O)OCC)C(C)C` was tested, and the T/C [10] was 97 % of control, the T/C [11] was 101 % of control and the T/C [12] was 117 % of control.
For `O=[N+]([O-])c1ccc2conc2c1`, the T/C (dose: 50.0 mg/kg/injection, schedule: Q01DX001 (ip), vehicle: carboxymethylcellulose (CMC)) was 94 % of control, the T/C [13] was 97 % of control and the T/C [14] was 92 % of control.
With `CCc1c(C)nnn1-c1ccccc1` the T/C [1] was 94 % of control and the T/C [2] was 91 % of control.
With `COc1c2c(c(OC)c3ccccc13)C(=O)C1=C(CC=CC1)C2=O` the T/C (dose: 50.0 mg/kg/injection, schedule: Q01DX005 (ip), vehicle: water) was 94 % of control, the T/C (dose: 100.0 mg/kg/injection, schedule: Q01DX005 (ip), vehicle: water) was 87 % of control and the T/C (dose: 200.0 mg/kg/injection, schedule: Q01DX005 (ip), vehicle: water) was 92 % of control.
With `NC1C(=O)Nc2cc(O)c(C(=O)O)cc21` (stereo not given) the T/C (dose: 100.0 mg/kg/injection, schedule: Q01DX001 (ip), vehicle: gum acacia) was 100 % of control, the T/C (dose: 200.0 mg/kg/injection, schedule: Q01DX001 (ip), vehicle: gum acacia) was 100 % of control and the T/C (dose: 400.0 mg/kg/injection, schedule: Q01DX001 (ip), vehicle: gum acacia) was 97 % of control.
For `Cc1cc2c(cc1C)NC(=O)CC(c1ccccc1)=N2`, the T/C [13] was 98 % of control, the T/C [14] was 93 % of control and the T/C (dose: 400.0 mg/kg/injection, schedule: Q01DX001 (ip), vehicle: carboxymethylcellulose (CMC)) was 98 % of control.
`CN(C)c1ccc(N=Cc2ccccc2O)cc1.[Co]` was tested, and the T/C (dose: 100.0 mg/kg/injection, schedule: Q01DX001 (ip), vehicle: other) was 90 % of control, the T/C (dose: 200.0 mg/kg/injection, schedule: Q01DX001 (ip), vehicle: other) was 94 % of control and the T/C (dose: 400.0 mg/kg/injection, schedule: Q01DX001 (ip), vehicle: other) was 91 % of control.
For `Cc1cccc(Cl)c1NC1=NCCO1`, the T/C (dose: 6.25 mg/kg/injection, schedule: Q01DX009 (ip), vehicle: saline with Tween-80) was 93 % of control, the T/C (dose: 12.5 mg/kg/injection, schedule: Q01DX009 (ip), vehicle: saline with Tween-80) was 102 % of control and the T/C (dose: 25.0 mg/kg/injection, schedule: Q01DX009 (ip), vehicle: saline with Tween-80) was 100 % of control.
In the case of `Cn1c(=O)c2c(ncn2CCSCC2=NS(=O)(=O)c3cc(S(N)(=O)=O)c(C(F)(F)F)cc3N2)n(C)c1=O`, the T/C (dose: 100.0 mg/kg/injection, schedule: Q04DX002 (ip), vehicle: saline) is reported as 97 % of control, the T/C (dose: 200.0 mg/kg/injection, schedule: Q04DX002 (ip), vehicle: saline) is reported as 94 % of control and the T/C (dose: 400.0 mg/kg/injection, schedule: Q04DX002 (ip), vehicle: saline) is reported as 94 % of control.
`[Br][Pb]([Br])([c]1ccccc1)[c]1ccccc1` was tested, and the T/C [15] was 117 % of control, the T/C [4] was 91 % of control and the T/C [16] was 98 % of control. The T/C [5] was 100 % of control and the T/C [6] was 94 % of control.
With `O=C1c2ccccc2S(=O)(=O)N1CCN1C(=O)c2ccccc2S1(=O)=O` the T/C [4] was 94 % of control, the T/C [5] was 93 % of control and the T/C [6] was 94 % of control.
With `C=CC[Se]c1nc(N)nc2c1ncn2C1OC(CO)C(O)C1O` (stereo not given) the T/C (dose: 12.5 mg/kg/injection, schedule: Q01DX005 (ip), vehicle: saline) was 104 % of control and the T/C (dose: 25.0 mg/kg/injection, schedule: Q01DX005 (ip), vehicle: saline) was 100 % of control.
`Nc1nc(=O)n(C2CC(O)C(CO)O2)cc1Br` (stereo not given) was tested, and the T/C (dose: 20.0 mg/kg/injection, schedule: Q01DX Z (ip), vehicle: carboxymethylcellulose (CMC)) was 95 % of control, the T/C (dose: 40.0 mg/kg/injection, schedule: Q01DX Z (ip), vehicle: carboxymethylcellulose (CMC)) was 101 % of control and the T/C (dose: 50.0 mg/kg/injection, schedule: Q01DX001 (ip), vehicle: saline) was 109 % of control. The T/C (dose: 80.0 mg/kg/injection, schedule: Q01DX Z (ip), vehicle: carboxymethylcellulose (CMC)) was 101 % of control, the T/C [7] was 105 % of control and the T/C (dose: 160.0 mg/kg/injection, schedule: Q01DX Z (ip), vehicle: carboxymethylcellulose (CMC)) was 106 % of control. For the same molecule, the T/C [8] was 111 % of control and the T/C [9] was 117 % of control.
In the case of `O=C(Sc1cccc2ccccc12)c1ccc([N+](=O)[O-])cc1`, the T/C [4] is reported as 95 % of control, the T/C [5] is reported as 97 % of control and the T/C [6] is reported as 95 % of control.
`C/C(=C\c1ccccc1)[N+](=O)[O-]` was tested, and the T/C (dose: 1.0 mg/kg/injection, schedule: Q04DX003 (ip), vehicle: Klucel (hydroxypropylcellulose) (HPC)) was 106 % of control, the T/C (dose: 4.0 mg/kg/injection, schedule: Q01DX009 (ip), vehicle: Klucel (hydroxypropylcellulose) (HPC)) was 104 % of control and the T/C (dose: 8.0 mg/kg/injection, schedule: Q01DX009 (ip), vehicle: Klucel (hydroxypropylcellulose) (HPC)) was 89 % of control. The T/C (dose: 12.5 mg/kg/injection, schedule: Q01DX009 (ip), vehicle: Klucel (hydroxypropylcellulose) (HPC)) was 98 % of control, the T/C (dose: 12.5 mg/kg/injection, schedule: Q04DX003 (ip), vehicle: Klucel (hydroxypropylcellulose) (HPC)) was 101 % of control and the T/C (dose: 16.0 mg/kg/injection, schedule: Q01DX009 (ip), vehicle: Klucel (hydroxypropylcellulose) (HPC)) was 107 % of control. The T/C (dose: 20.0 mg/kg/injection, schedule: Q04DX003 (ip), vehicle: Klucel (hydroxypropylcellulose) (HPC)) was 101 % of control, the T/C (dose: 25.0 mg/kg/injection, schedule: Q01DX009 (ip), vehicle: Klucel (hydroxypropylcellulose) (HPC)) was 102 % of control and 104 % of control and the T/C (dose: 25.0 mg/kg/injection, schedule: Q04DX003 (ip), vehicle: Klucel (hydroxypropylcellulose) (HPC)) was 116 % of control. The T/C (dose: 32.0 mg/kg/injection, schedule: Q01DX009 (ip), vehicle: Klucel (hydroxypropylcellulose) (HPC)) was 100 % of control, the T/C (dose: 40.0 mg/kg/injection, schedule: Q04DX003 (ip), vehicle: Klucel (hydroxypropylcellulose) (HPC)) was 95 % of control and the T/C (dose: 50.0 mg/kg/injection, schedule: Q01DX009 (ip), vehicle: Klucel (hydroxypropylcellulose) (HPC)) was 101 % of control and 113 % of control. The T/C [3] was 106 % of control, the T/C (dose: 64.0 mg/kg/injection, schedule: Q01DX009 (ip), vehicle: Klucel (hydroxypropylcellulose) (HPC)) was 110 % of control and the T/C (dose: 80.0 mg/kg/injection, schedule: Q04DX003 (ip), vehicle: Klucel (hydroxypropylcellulose) (HPC)) was 100 % of control.
In the case of `O=C(/C=C\c1ccccc1)/C=C/c1ccccc1`, the T/C [15] is reported as 90 % of control, the T/C (dose: 100.0 mg/kg/injection, schedule: Q01DX009 (sc), vehicle: olive oil, sesame oil, peanut oil) is reported as 113 % of control and the T/C [4] is reported as 95 % of control. For the same molecule, the T/C [16] was 95 % of control, the T/C (dose: 200.0 mg/kg/injection, schedule: Q01DX009 (sc), vehicle: olive oil, sesame oil, peanut oil) was 98 % of control and the T/C [5] was 98 % of control. The T/C (dose: 400.0 mg/kg/injection, schedule: Q01DX009 (sc), vehicle: olive oil, sesame oil, peanut oil) was 102 % of control and the T/C [6] was 98 % of control.
`CN(C)[C@@H]1C(=O)C(C(=O)NCNc2nc(=S)c3[nH]cnc3[nH]2)=C(O)[C@@]2(O)C(=O)C3=C(O)c4c(O)cccc4[C@@](C)(O)[C@H]3C[C@@H]12` was tested, and the T/C (dose: 75.0 mg/kg/injection, schedule: Q01DX Z (ip), vehicle: carboxymethylcellulose (CMC)) was 119 % of control, the T/C (dose: 125.0 mg/kg/injection, schedule: Q01DX Z (ip), vehicle: carboxymethylcellulose (CMC)) was 121 % of control and the T/C (dose: 250.0 mg/kg/injection, schedule: Q01DX Z (ip), vehicle: carboxymethylcellulose (CMC)) was 95 % of control.
